Assay results reported in paper PMC6366423 (Journal of Enzyme Inhibition and Medicinal Chemistry, 2019).
Where “and” joins values, the source holds several entries; their conditions need not be identical. Identical values can stand only once. Like-named read-outs stand apart in the source and are kept apart here.

What was measured:
[1] = Oxygen radical absorbance capacity assay (ORAC-FL); conditions: Trolox equivalents (TE), mean (n = 3) ± SD
[2] = target: T1, hMAOA (Homo sapiens, UniProt P21397); experiment: MAO activity assay (kynuramine, HPLC-MS); format: biochemical; conditions: for inhibition at 10 µM: read-out: hMAOA enzymatic inhibition (%)
T1 sequence (P21397 1-527): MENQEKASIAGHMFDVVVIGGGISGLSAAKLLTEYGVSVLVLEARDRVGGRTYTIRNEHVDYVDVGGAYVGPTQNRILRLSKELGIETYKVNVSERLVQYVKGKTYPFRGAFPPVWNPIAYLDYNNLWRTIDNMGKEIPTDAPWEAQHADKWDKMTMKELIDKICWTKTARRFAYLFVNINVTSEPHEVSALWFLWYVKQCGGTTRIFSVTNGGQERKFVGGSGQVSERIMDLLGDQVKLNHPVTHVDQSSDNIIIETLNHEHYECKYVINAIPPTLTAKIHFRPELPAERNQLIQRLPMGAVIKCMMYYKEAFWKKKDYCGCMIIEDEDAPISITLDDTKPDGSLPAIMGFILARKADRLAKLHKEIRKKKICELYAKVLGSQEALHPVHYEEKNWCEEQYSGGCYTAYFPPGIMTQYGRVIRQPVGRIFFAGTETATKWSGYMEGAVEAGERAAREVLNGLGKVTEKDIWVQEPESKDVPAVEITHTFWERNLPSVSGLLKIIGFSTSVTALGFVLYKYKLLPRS

[3] = target: T2, hMAOB (Homo sapiens, UniProt P27338); experiment: MAO activity assay (kynuramine, HPLC-MS); format: biochemical; conditions: for inhibition at 10 µM: read-out: hMAOB enzymatic inhibition (%); for IC50: IC50 hMAOB, mean ± SEM
T2 sequence (P27338 1-520): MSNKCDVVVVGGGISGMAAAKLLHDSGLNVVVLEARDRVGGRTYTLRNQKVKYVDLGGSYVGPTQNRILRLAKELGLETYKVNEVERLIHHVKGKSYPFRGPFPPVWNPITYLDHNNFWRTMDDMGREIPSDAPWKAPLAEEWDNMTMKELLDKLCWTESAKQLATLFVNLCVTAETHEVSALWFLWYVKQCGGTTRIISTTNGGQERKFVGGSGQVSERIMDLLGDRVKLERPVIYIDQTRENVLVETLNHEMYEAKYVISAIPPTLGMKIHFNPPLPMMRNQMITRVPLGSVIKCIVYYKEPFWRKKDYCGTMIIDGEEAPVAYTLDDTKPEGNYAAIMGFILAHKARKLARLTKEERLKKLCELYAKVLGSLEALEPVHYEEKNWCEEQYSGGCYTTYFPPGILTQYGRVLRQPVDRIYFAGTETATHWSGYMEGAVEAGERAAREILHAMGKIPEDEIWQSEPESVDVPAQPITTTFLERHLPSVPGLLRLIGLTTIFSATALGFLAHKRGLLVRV

[4] = target: T3, EeAChE (Electrophorus electricus, UniProt O42275); experiment: biochemical; conditions: for inhibition at 10 µM: read-out: EeAChE enzymatic inhibition (%)
T3 construct: EeAChE (type VI-S, purified from Electrophorus electricus); tissue type VI-S
T3 sequence (O42275 24-633): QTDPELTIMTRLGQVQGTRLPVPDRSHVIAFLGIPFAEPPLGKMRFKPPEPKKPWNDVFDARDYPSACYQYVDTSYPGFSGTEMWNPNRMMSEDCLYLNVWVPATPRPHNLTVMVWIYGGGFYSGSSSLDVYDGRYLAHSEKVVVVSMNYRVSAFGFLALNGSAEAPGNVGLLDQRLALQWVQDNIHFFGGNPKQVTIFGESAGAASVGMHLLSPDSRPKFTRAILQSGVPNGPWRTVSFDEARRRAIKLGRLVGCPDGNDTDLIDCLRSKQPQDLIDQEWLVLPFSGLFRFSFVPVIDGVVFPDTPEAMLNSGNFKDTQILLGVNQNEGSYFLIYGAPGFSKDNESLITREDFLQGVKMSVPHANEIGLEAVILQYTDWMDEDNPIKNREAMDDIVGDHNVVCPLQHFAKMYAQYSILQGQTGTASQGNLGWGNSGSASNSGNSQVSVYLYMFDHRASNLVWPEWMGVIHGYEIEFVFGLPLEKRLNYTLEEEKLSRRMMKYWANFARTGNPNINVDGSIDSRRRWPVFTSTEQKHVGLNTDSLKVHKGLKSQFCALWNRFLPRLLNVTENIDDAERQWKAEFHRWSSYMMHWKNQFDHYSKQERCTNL
Experimental: (§1) Inhibition of EeAChE and eqBuChE of hybrids 14a–p was carried out with EeAChE (type VI-S, purified from Electrophorus electricus) and eqBuChE (purified from equine serum) using Ellman’s protocol. Briefly, the reaction was performed in a final volume of 3 ml of a phosphate-buffered solution (0.1 M) at pH = 8.0 containing 5,5’-dithiobis-2-nitrobenzoic acid (DTNB) (2.625 μL, 0.35 mM), EeAChE (29 μl, 0.035 U/mL) or eqBuChE (60 μl, 0.05 U/mL), Bovine Albumin Serum phosphate-buffered solution (40 μL 1% w/v), and tested compound (3 µL). After 10 min of incubation, the substrate, AcTCh) iodide or butyrylthiocholine (BuTCh) iodide, was added, and the reaction was incubated for an additional 15 min.

[5] = target: T4, eqBuChE (Equus caballus, UniProt P81908); experiment: biochemical; format: biochemical, equine; conditions: for IC50: mean ± SEM
T4 construct: eqBuChE (purified from equine serum); from tissue; host or cells: equine serum
T4 sequence (P81908 whole entry): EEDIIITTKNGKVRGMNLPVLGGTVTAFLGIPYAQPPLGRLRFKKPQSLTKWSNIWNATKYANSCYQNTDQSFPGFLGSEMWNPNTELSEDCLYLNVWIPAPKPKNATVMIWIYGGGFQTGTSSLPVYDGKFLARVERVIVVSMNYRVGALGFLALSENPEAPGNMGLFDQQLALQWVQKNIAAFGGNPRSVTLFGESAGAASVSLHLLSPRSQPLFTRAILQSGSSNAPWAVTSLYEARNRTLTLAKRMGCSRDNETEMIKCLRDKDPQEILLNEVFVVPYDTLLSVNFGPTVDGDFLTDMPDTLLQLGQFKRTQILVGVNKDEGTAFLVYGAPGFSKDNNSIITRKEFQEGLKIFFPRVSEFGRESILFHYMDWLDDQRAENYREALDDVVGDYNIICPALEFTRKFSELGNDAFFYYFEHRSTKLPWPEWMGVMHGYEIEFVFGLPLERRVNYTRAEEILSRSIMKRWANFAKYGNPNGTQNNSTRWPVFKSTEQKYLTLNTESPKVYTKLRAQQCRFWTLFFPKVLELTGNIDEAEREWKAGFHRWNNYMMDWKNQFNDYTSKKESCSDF
Experimental: as §1

[6] = target: T5, hAChE (Homo sapiens, UniProt P22303); experiment: biochemical; format: biochemical; conditions: for inhibition at 10 µM: read-out: hAChE enzymatic inhibition (%); for IC50: mean ± SEM
T5 construct: purchased Sigma Aldrich; host or cells: HEK 293
T5 sequence (P22303 32-614): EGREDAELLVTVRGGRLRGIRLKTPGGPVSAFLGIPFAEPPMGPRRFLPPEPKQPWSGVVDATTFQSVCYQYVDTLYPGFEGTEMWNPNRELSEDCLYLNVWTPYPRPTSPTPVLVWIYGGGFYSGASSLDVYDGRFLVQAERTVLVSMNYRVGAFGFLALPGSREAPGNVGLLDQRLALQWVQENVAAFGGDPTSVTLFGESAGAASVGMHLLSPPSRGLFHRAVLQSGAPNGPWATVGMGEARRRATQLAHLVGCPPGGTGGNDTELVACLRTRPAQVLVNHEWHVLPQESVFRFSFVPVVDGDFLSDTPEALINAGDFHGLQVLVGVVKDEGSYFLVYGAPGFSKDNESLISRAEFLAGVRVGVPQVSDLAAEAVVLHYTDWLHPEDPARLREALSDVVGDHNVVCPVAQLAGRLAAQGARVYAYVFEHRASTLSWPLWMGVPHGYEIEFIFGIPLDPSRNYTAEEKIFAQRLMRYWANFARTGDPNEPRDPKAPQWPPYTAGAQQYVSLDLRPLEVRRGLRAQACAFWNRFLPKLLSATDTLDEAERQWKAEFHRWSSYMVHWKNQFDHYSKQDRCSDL

[7] = target: T6, hBuChE (Homo sapiens, UniProt P06276); experiment: biochemical; format: biochemical; conditions: for inhibition at 10 µM: read-out: hBuChE enzymatic inhibition (%); for IC50: mean ± SEM
T6 construct: hBuChE from human serum (Sigma Aldrich, Madrid, Spain); purchased Sigma Aldrich; host or cells: human serum
T6 sequence (P06276 29-602): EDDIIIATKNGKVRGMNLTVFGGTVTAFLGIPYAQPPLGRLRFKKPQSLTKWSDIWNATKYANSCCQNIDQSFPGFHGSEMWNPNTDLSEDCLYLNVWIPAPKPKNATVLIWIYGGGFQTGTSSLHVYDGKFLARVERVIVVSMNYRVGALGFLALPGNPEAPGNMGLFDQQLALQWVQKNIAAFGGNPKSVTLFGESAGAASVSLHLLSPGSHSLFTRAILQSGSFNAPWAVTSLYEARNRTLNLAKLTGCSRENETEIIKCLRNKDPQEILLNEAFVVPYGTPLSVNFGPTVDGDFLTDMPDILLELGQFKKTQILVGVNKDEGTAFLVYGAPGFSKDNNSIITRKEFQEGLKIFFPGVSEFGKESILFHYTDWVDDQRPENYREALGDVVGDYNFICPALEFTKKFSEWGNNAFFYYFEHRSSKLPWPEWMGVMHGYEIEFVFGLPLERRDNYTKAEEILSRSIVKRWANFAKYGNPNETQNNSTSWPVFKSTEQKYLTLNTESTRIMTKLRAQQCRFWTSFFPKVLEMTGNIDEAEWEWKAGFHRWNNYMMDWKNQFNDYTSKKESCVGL

[8] = ORAC-FL, positive reference molecules; cited from earlier work

SMILES	ORAC (Eq Trolox) [1]	inhibition at 10 µM [2]	inhibition at 10 µM [3]	IC50 ([4]; mean ± SEM)	IC50 [5]	inhibition at 10 µM ([6]; at 10 μM)	inhibition at 10 µM [7]	IC50 [6]	IC50 [7]	other results
COc1ccc2[nH]cc(CCNC(=O)CN(CCCC3CCN(Cc4ccccc4)CC3)C(=O)c3cc(=O)c4ccccc4o3)c2c1 [14j]	3.31 ± 0.10 Eq Trolox	< 40%	< 40%	270 nM	37.1 ± 0.46 nM	< 50%	< 50%	–	–	–
COc1cc(/C=C/C(=O)O)ccc1O [Ferulic acid]	–	–	–	–	–	–	–	–	–	ORAC (Eq Trolox) [8]: 3.74 Eq Trolox and 3.74 ± 0.22 Eq Trolox
COc1ccc2[nH]cc(CCNC(=O)CN(CCCCC3CCN(Cc4ccccc4)CC3)C(=O)c3cc(=O)c4ccccc4o3)c2c1 [14n, N-(4–(1-benzylpiperidin-4-yl)butyl)-N-(2-((2–(5-methoxy-1H-indol-3-yl)ethyl)amino)-2-oxoethyl)-4-oxo-4H-chromene-2-carboxamide]	3.04 Eq Trolox	–	–	480 ± 10 nM	43.4 ± 1.37 nM	–	–	1730 ± 340 nM	11.9 ± 0.05 nM	ORAC (Eq Trolox) ([1]; listed as [14]n): 3.04 ± 0.36 Eq Trolox; IC50 [2]: 2780 ± 120 nM; IC50 [3]: 21300 nM; hBuChE, fold less active than Tacrine [7]: 2 fold
CCCOc1ccc2[nH]cc(CCNC(=O)CN(CCC3CCN(Cc4ccccc4)CC3)C(=O)c3cc(=O)c4ccccc4o3)c2c1 [14h]	6.07 ± 0.02 Eq Trolox	< 40%	< 40%	850 ± 20 nM	6.76 ± 0.49 nM	–	–	2040 ± 660 nM	63.9 ± 2.55 nM	eqBuChE potency, fold more potent than Donepezil [5]: 133 fold
CCCOc1ccc2[nH]cc(CCNC(=O)CN(CC3CCN(Cc4ccccc4)CC3)C(=O)c3cc(=O)c4ccccc4o3)c2c1 [14d]	6.76 ± 0.09 Eq Trolox	< 40%	–	–	46.9 ± 3.41 nM	< 50%	< 50%	–	–	inhibition at 10 µM [4]: < 50%
Nc1c2c(nc3ccccc13)CCCC2 [Tacrine, reference compound]	0.2 ± 0.1 Eq Trolox	–	–	–	–	–	–	–	–	–
COc1ccc2[nH]cc(CCNC(=O)CN(CC3CCN(Cc4ccccc4)CC3)C(=O)c3cc(=O)c4ccccc4o3)c2c1 [14b]	6.24 ± 0.05 Eq Trolox	< 40%	< 40%	–	636 ± 11.6 nM	< 50%	< 50%	–	–	inhibition at 10 µM [4]: < 50%
O=C(CN(CCCC1CCN(Cc2ccccc2)CC1)C(=O)c1cc(=O)c2ccccc2o1)NCCc1c[nH]c2ccccc12 [14i]	6.92 Eq Trolox	< 40%	< 40%	260 ± 10 nM	50.1 ± 5.19 nM	< 50%	< 50%	–	–	ORAC (Eq Trolox) ([1]; listed as [14]i): 6.92 ± 0.32 Eq Trolox
CC(C)Oc1ccc2[nH]cc(CCNC(=O)CN(CCC3CCN(Cc4ccccc4)CC3)C(=O)c3cc(=O)c4ccccc4o3)c2c1 [14g]	5.05 ± 0.15 Eq Trolox	< 40%	< 40%	1050 ± 60 nM	6.29 ± 0.73 nM	–	–	2000 ± 70 nM	25 ± 0.2 nM	eqBuChE potency, fold more potent than Donepezil [5]: 133 fold
CC(C)Oc1ccc2[nH]cc(CCNC(=O)CN(CCCC3CCN(Cc4ccccc4)CC3)C(=O)c3cc(=O)c4ccccc4o3)c2c1 [14k]	2.27 Eq Trolox	–	–	360 ± 10 nM	18.21 ± 0.18 nM	–	–	–	34.9 ± 0.85 nM	ORAC (Eq Trolox) ([1]; listed as [14]k): 2.27 ± 0.37 Eq Trolox; IC50 [2]: 2990 ± 160 nM; IC50 [3]: 15200 nM; hAChE enzymatic inhibition (%) ([6]; at 10 μM): – ^b
CC(C)Oc1ccc2[nH]cc(CCNC(=O)CN(CC3CCN(Cc4ccccc4)CC3)C(=O)c3cc(=O)c4ccccc4o3)c2c1 [14c]	6.11 ± 0.07 Eq Trolox	< 40%	< 40%	–	246 ± 9.91 nM	< 50%	< 50%	–	–	inhibition at 10 µM [4]: < 50%
O=C(CN(CCC1CCN(Cc2ccccc2)CC1)C(=O)c1cc(=O)c2ccccc2o1)NCCc1c[nH]c2ccccc12 [14e]	6.52 ± 0.37 Eq Trolox	< 40%	< 40%	1430 ± 50 nM	29.6 ± 2.38 nM	–	–	2620 ± 530 nM	33.3 ± 0.55 nM	–
COc1ccc2[nH]cc(CCNC(=O)CN(CCC3CCN(Cc4ccccc4)CC3)C(=O)c3cc(=O)c4ccccc4o3)c2c1 [14f]	6.13 ± 0.09 Eq Trolox	< 40%	–	–	26 ± 2.37 nM	–	–	360 ± 160 nM	271.8 ± 1.75 nM	IC50 [3]: 80600 ± 13900 nM; hAChE, fold less active than Donepezil [6]: 15 fold
CCCOc1ccc2[nH]cc(CCNC(=O)CN(CCCC3CCN(Cc4ccccc4)CC3)C(=O)c3cc(=O)c4ccccc4o3)c2c1 [14l]	2.44 ± 0.16 Eq Trolox	< 40%	< 40%	380 ± 10 nM	9.03 ± 0.18 nM	< 50%	< 50%	–	–	–
O=C(CN(CCCCC1CCN(Cc2ccccc2)CC1)C(=O)c1cc(=O)c2ccccc2o1)NCCc1c[nH]c2ccccc12 [14m]	2.97 ± 0.16 Eq Trolox	< 40%	< 40%	60 nM	355 ± 8.41 nM	< 50%	< 50%	–	–	IC50 ([4]; values given in nM): 58.2 nM
CCCOc1ccc2[nH]cc(CCNC(=O)CN(CCCCC3CCN(Cc4ccccc4)CC3)C(=O)c3cc(=O)c4ccccc4o3)c2c1 [14p]	2.67 ± 0.15 Eq Trolox	–	< 40%	80 nM	61.3 ± 5.48 nM	–	–	2100 ± 510 nM	80.4 ± 12.4 nM	IC50 [2]: 1390 ± 110 nM
CC(C)Oc1ccc2[nH]cc(CCNC(=O)CN(CCCCC3CCN(Cc4ccccc4)CC3)C(=O)c3cc(=O)c4ccccc4o3)c2c1 [14o]	2.63 ± 0.12 Eq Trolox	< 40%	< 40%	90 nM	46.6 ± 2.76 nM	< 50%	< 50%	–	–	IC50 ([4]; values given in nM): 88.5 nM
O=C(CN(CC1CCN(Cc2ccccc2)CC1)C(=O)c1cc(=O)c2ccccc2o1)NCCc1c[nH]c2ccccc12 [14a]	6.28 ± 0.12 Eq Trolox	–	< 40%	–	496 ± 7.07 nM	< 50%	–	–	1170 nM	IC50 [2]: 2000 nM; inhibition at 10 µM [4]: < 50%
